Results: patent US20200407398A1, “Short Proline-Rich Lipopeptide Potentiates Minocycline and Rifampicin Against Multidrug-and Extensively Drug-Resistant Pseudomonas Aeruginosa” (priority 2018, published 2020)
Peptide text beside a SMILES is read from it. * marks the point of attachment. Acetyl(1-adamantyl) = O=C(CC12CC3CC(CC(C3)C1)C2)*; Octanoyl = CCCCCCCC(=O)*

Key:
Type in all cases: cell-based
pig erythrocytes = conditions: red cells of porcine
Protocol: Since PRAMPs are able to kill bacteria through membrane lysis, it is imperative to evaluate whether these synthesized SPRLPs also lyse eukaryotic membranes. The ability to lyse porcine red blood cells was assessed and the minimum concentration to result in 5% erythrocyte hemolysis (MHC) was reported (Tables 2 & 3). […] This greatly limits their therapeutic potential. […] However, all other SPRLPs were non-hemolytic (MHC>512 μg/mL).
The ability of SPRLPs to lyse eukaryotic red blood cells were quantified by the amount of hemoglobin released upon incubation with pig erythrocytes, following published protocols (37, 39). Fresh pig blood drawn from pig antecubital vein was centrifuged at 1000×g for 5 minutes at 4° C., washed with PBS three times and re-suspended in the same buffer, consecutively. Then, agents of interest were 2-fold serially diluted in PBS on 96-well plate and mixed with equal volumes of erythrocyte solution. Post 1-hour incubation at 37° C., intact cells were pelleted by centrifugation at 1000×g for 5 minutes at 4° C. The supernatant was then transferred to a new 96-well plate. The hemoglobin released was measured via EMax Plus microplate reader (Molecular Devices, USA) at 570 nm wavelength. Erythrocytes in PBS with or without 0.1% Triton X-100 was used as negative or positive control, respectively.

K. pneumoniae ATCC 13883 = system: K. pneumoniae ATCC 13883
Protocol: (§1) The synthesized SPRLPs were evaluated for their antibacterial potency against a panel of Gram-positive and Gram-negative bacteria (Tables 2 & 3). Some of the included pathogens were collected from patients visiting or admitted to participating Canadian hospitals through the CAN-ICU (27) and CANWARD (28) national surveillance studies. Antibacterial activity was assessed using minimum inhibitory concentration (MIC) against various clinical pathogens.
(§2) Isolates used in this study were either obtained from the American Type Culture Collection (ATCC), the Canadian National Intensive Care Unit (CAN-ICU) surveillance study (27) or the Canadian Ward Surveillance (CANWARD) study (28). Clinical isolates belonging to the CAN-ICU and CANWARD studies were recovered from patients suffering a presumed infectious disease entering or admitted in a participating medical center across Canada during the time of study. MDR P. aeruginosa strains in this study refer to those that are resistant to aminoglycosides, fluoroquinolones, cephalosporins, and carbapenems while XDR strains are those that are resistant to aminoglycosides, fluoroquinolones, cephalosporins, carbapenems, aztreonam and penicillin+β-lactamase inhibitor combination (39, 40).
(§3) Microbroth dilution susceptibility test following the Clinical and Laboratory Standards Institute (CLSI) guidelines (32) was performed to assess the in vitro antibacterial activity of SPRLPs. Overnight grown bacterial cultures were diluted in saline to achieve a 0.5 McFarland turbidity, followed by 1:50 dilution in Mueller-Hinton broth (MHB) for inoculation to a final concentration of 5×10^5 colony forming units/mL. The assay was done on a 96-well plate to which the agents of interest were 2-fold serially diluted in MHB and incubated with equal volumes of inoculum at 37° C. for 18 hours. MIC was determined as the lowest concentration to inhibit visible bacterial growth in form of turbidity, which was confirmed using EMax Plus microplate reader (Molecular Devices, USA) at a wavelength of 590 nm. The well containing MHB broth with or without bacterial cells was used as positive or negative control, respectively.

[1] = system: P. aeruginosa CANWARD-2011 96846 (gentamicin-, tobramycin-resistant)
Protocol: as §1, §2, §3

[2] = system: methicillin-resistant S. epidermidis CAN-ICU 61589 (ceftazidime-resistant); conditions: methicillin-resistant CAN-ICU 61589 (ceftazidime-resistant)
Protocol: as §1, §2, §3

[3] = system: P. aeruginosa CAN-ICU 62308 (gentamicin-resistant)
Protocol: as §1, §2, §3

[4] = system: P. aeruginosa wild-type PAO1
Protocol: as §1, §2, §3

[5] = system: methicillin-susceptible Staphylococcus epidermidis CANWARD-2008 81388; conditions: methicillin-susceptible CANWARD-2008 81388
Protocol: as §1, §2, §3

E. coli ATCC 25922 = system: E. coli ATCC 25922
Protocol: as §1, §2, §3

E. faecium ATCC 27270 = system: E. faecium ATCC 27270
Protocol: as §1, §2, §3

[6] = system: E. coli CAN-ICU 61714 (gentamicin-resistant)
Protocol: as §1, §2, §3

[7] = system: methicillin-resistant S. aureus ATCC 33592
Protocol: as §1, §2, §3

[8] = system: S. maltophilia CAN-ICU 62584
Protocol: as §1, §2, §3

[9] = system: E. coli CAN-ICU 63074 (amikacin-intermediate resistant)
Protocol: as §1, §2, §3

P. aeruginosa ATCC 27853 = system: P. aeruginosa ATCC 27853
Protocol: as §1, §2, §3

S. aureus ATCC 29213 = system: S. aureus ATCC 29213
Protocol: as §1, §2, §3

E. faecalis ATCC 29212 = system: E. faecalis ATCC 29212
Protocol: as §1, §2, §3

[10] = system: A. baumannii CAN-ICU 63169
Protocol: as §1, §2, §3

[11] = system: E. coli CANWARD-2011 97615 (gentamicin-, tobramycin-, ciprofloxacin-resistant) aac(3′)iia
Protocol: as §1, §2, §3

MIC (K. pneumoniae ATCC 13883) [µg/mL]	MIC [1] [µg/mL]	MIC [2] [µg/mL]	MIC [3] [µg/mL]	MIC [4] [µg/mL]	MIC [5] [µg/mL]	MIC (E. coli ATCC 25922) [µg/mL]	MIC (E. faecium ATCC 27270) [µg/mL]	MIC [6] [µg/mL]	MIC [7] [µg/mL]	MIC [8] [µg/mL]	MIC [9] [µg/mL]	MIC (P. aeruginosa ATCC 27853) [µg/mL]	MIC (S. aureus ATCC 29213) [µg/mL]	MIC (E. faecalis ATCC 29212) [µg/mL]	MIC [10] [µg/mL]	MIC [11] [µg/mL]	Structure (SMILES)	MHC (minimum concentration that resulted in 5% red blood cell hemolysis) (pig erythrocytes) [µg/mL]
>128	>128	>128	>128	>512	>128	>128	>128	>128	>128	>128	>128	>128	>128	>128	>128	>128	N=C(N)NCCC[C@H](NC(=O)[C@@H]1CCCN1C(=O)CNC(=O)[C@@H]1CCCN1C(=O)[C@H](CCCNC(=N)N)NC(=O)[C@@H]1CCCN1C(=O)CC12CC3CC(CC(C3)C1)C2)C(=O)N1CCC[C@H]1C(N)=O [Ad-PGP, Adamantyl-CH2CO-PRPGPRP-NH2] ({Acetyl(1-adamantyl)}-PRPGPRP-NH2)	>512
>128	>128	>128	>128	>512	>128	>128	>128	>128	>128	>128	>128	>128	>128	>128	>128	>128	CC(C)C[C@H](NC(=O)[C@@H]1CCCN1C(=O)[C@H](CCCNC(=N)N)NC(=O)[C@@H]1CCCN1C(=O)CC12CC3CC(CC(C3)C1)C2)C(=O)N1CCC[C@H]1C(=O)N[C@@H](CCCNC(=N)N)C(=O)N1CCC[C@H]1C(N)=O [Ad-PLP, Adamantyl-CH2CO-PRPLPRP-NH2] ({Acetyl(1-adamantyl)}-PRPLPRP-NH2)	>512
>128	>128	>128	>128	>512	>128	>128	>128	>128	>128	>128	>128	>128	>128	>128	>128	>128	N=C(N)NCCC[C@H](NC(=O)[C@@H]1CCCN1C(=O)[C@H](Cc1c[nH]c2ccccc12)NC(=O)[C@@H]1CCCN1C(=O)[C@H](CCCNC(=N)N)NC(=O)[C@@H]1CCCN1C(=O)CC12CC3CC(CC(C3)C1)C2)C(=O)N1CCC[C@H]1C(N)=O [Ad-PWP, Adamantyl-CH2CO-PRPWPRP-NH2] ({Acetyl(1-adamantyl)}-PRPWPRP-NH2)	>512
>128	>128	>128	>128	>512	>128	>128	>128	>128	>128	>128	>128	>128	>128	>128	>128	>128	CCCCCCCC(=O)N1CCC[C@H]1C(=O)N[C@@H](CCCNC(=N)N)C(=O)N1CCC[C@H]1C(=O)NCC(=O)N1CCC[C@H]1C(=O)N[C@@H](CCCNC(=N)N)C(=O)N1CCC[C@H]1C(N)=O [Compound C8-PGP, CH3(CH2)6CO-PRPGPRP-NH2] (Octanoyl-PRPGPRP-NH2)	>512
>128	>128	>128	>128	>512	>128	>128	>128	>128	>128	>128	>128	>128	>128	>128	>128	>128	CCCCCCCC(=O)N1CCC[C@H]1C(=O)N[C@@H](CCCNC(=N)N)C(=O)N1CCC[C@H]1C(=O)N[C@@H](CC(C)C)C(=O)N1CCC[C@H]1C(=O)N[C@@H](CCCNC(=N)N)C(=O)N1CCC[C@H]1C(N)=O [Compound C8-PLP, CH3(CH2)6CO-PRPLPRP-NH2] (Octanoyl-PRPLPRP-NH2)	>512
>128	>128	>128	>128	>512	>128	>128	>128	>128	>128	>128	>128	>128	>128	>128	>128	>128	CCCCCCCC(=O)N1CCC[C@H]1C(=O)N[C@@H](CCCNC(=N)N)C(=O)N1CCC[C@H]1C(=O)N[C@@H](Cc1c[nH]c2ccccc12)C(=O)N1CCC[C@H]1C(=O)N[C@@H](CCCNC(=N)N)C(=O)N1CCC[C@H]1C(N)=O [Compound C8-PWP, CH3(CH2)6CO-PRPWPRP-NH2] (Octanoyl-PRPWPRP-NH2)	>512
